{
  "source": "the kinase profiling compilation of Christmann-Franck et al. (2016)",
  "assay_in_all_cases": "KINOMEscan competition binding",
  "conditions_in_all_cases": "compound 2.0 µM",
  "key": {"[1]": {"target": "PIK3C2G (human) (UniProt O75747)"}, "[2]": {"target": "MATK (human) (UniProt P42679)"}, "[3]": {"target": "PAK1 (human) (UniProt Q13153)"}, "[4]": {"target": "RPS6KA5 KD2 (human) (UniProt O75582)"}, "[5]": {"target": "NEK4 (human) (UniProt P51957)"}, "[6]": {"target": "EPHA4 (human) (UniProt P54764)"}, "[7]": {"target": "EPHA3 (human) (UniProt P29320)"}, "[8]": {"target": "MAPKAPK2 (human) (UniProt P49137)"}, "[9]": {"target": "KIT (human) (UniProt P10721)", "sequence (P10721 whole entry, looked up)": "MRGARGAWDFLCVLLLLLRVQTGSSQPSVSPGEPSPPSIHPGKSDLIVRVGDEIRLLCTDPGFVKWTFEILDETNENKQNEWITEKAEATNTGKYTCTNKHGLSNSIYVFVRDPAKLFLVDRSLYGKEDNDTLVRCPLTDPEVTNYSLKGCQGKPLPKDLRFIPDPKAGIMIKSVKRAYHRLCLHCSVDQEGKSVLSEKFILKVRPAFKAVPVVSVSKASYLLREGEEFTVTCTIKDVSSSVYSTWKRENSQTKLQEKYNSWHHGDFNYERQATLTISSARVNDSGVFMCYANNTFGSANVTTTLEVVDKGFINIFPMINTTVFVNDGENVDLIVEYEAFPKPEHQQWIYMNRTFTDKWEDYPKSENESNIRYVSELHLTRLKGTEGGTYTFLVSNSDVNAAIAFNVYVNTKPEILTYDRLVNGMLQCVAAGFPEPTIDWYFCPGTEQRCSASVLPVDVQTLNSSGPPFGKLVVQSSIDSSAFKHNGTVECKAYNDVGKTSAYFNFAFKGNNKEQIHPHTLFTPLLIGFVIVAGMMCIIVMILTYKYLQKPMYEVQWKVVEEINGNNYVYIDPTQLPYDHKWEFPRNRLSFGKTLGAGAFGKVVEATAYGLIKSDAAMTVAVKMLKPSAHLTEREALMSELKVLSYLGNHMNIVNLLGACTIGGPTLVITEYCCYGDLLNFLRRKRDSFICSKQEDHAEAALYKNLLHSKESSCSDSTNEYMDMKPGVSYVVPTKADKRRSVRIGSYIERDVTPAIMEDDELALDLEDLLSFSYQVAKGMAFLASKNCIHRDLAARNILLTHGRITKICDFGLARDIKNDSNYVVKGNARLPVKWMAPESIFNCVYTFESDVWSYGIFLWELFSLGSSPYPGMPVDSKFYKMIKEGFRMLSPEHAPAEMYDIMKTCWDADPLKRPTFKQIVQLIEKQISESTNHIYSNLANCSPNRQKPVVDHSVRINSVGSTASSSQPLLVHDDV"}, "[10]": {"tested_on": "EGFR (human), P00533 [P753S; 747-752 del]"}, "[11]": {"target": "STK39 (human) (UniProt Q9UEW8)"}, "[12]": {"target": "TAOK1 (human) (UniProt Q7L7X3)"}, "[13]": {"target": "MERTK (human) (UniProt Q12866)"}, "[14]": {"target": "RPS6KA2 KD2 (human) (UniProt Q15349)", "sequence (Q15349 whole entry, looked up)": "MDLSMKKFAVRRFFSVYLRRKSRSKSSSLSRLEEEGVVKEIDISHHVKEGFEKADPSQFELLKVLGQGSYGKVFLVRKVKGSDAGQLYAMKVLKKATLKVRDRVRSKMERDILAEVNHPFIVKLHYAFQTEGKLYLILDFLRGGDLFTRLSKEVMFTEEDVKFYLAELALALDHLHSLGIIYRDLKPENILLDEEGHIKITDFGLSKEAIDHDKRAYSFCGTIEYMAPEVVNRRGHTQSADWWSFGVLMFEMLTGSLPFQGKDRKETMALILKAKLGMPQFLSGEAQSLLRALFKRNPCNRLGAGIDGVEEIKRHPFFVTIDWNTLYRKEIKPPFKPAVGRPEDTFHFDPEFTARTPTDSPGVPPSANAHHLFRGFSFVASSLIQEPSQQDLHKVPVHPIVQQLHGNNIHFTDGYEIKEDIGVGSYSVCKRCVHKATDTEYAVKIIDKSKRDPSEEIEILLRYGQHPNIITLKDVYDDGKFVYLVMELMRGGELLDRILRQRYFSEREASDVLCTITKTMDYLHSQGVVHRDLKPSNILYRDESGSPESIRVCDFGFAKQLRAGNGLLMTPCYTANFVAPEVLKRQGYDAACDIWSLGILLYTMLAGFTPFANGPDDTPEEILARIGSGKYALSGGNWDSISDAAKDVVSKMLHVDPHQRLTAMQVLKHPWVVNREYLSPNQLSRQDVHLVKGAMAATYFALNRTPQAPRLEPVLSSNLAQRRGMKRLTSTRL"}, "[15]": {"target": "FLT1 (human) (UniProt P17948)"}, "[16]": {"target": "CaMK1 (human) (UniProt Q14012)", "sequence (Q14012 whole entry, looked up)": "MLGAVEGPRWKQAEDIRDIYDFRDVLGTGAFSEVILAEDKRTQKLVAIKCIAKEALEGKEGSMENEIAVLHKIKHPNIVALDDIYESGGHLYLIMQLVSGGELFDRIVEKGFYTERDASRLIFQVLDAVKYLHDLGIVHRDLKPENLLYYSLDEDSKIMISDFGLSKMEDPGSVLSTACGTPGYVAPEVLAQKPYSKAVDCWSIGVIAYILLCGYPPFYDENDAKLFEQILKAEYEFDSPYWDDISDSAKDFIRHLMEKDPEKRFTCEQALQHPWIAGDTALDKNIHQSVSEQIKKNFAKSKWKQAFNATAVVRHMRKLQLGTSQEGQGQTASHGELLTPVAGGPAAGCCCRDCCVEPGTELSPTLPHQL"}, "[17]": {"target": "NEK7 (human) (UniProt Q8TDX7)"}, "[18]": {"target": "ACVR1 (human) (UniProt Q04771)", "sequence (Q04771 whole entry, looked up)": "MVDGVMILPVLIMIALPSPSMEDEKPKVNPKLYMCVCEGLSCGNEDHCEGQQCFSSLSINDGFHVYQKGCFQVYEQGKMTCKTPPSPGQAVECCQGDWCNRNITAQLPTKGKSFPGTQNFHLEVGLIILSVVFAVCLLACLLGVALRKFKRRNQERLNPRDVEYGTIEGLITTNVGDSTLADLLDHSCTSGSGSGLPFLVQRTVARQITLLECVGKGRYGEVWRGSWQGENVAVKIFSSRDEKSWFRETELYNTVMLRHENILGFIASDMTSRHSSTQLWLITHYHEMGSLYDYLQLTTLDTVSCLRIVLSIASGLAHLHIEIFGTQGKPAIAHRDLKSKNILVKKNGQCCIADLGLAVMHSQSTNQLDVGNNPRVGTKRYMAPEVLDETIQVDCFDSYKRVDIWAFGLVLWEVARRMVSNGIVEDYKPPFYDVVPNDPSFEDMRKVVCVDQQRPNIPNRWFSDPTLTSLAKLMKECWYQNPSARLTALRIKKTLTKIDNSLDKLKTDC"}, "[19]": {"target": "BMPR1A (human) (UniProt P36894)"}, "[20]": {"target": "MUSK (human) (UniProt O15146)"}, "[21]": {"target": "FLT4 (human) (UniProt P35916)", "sequence (P35916 whole entry, looked up)": "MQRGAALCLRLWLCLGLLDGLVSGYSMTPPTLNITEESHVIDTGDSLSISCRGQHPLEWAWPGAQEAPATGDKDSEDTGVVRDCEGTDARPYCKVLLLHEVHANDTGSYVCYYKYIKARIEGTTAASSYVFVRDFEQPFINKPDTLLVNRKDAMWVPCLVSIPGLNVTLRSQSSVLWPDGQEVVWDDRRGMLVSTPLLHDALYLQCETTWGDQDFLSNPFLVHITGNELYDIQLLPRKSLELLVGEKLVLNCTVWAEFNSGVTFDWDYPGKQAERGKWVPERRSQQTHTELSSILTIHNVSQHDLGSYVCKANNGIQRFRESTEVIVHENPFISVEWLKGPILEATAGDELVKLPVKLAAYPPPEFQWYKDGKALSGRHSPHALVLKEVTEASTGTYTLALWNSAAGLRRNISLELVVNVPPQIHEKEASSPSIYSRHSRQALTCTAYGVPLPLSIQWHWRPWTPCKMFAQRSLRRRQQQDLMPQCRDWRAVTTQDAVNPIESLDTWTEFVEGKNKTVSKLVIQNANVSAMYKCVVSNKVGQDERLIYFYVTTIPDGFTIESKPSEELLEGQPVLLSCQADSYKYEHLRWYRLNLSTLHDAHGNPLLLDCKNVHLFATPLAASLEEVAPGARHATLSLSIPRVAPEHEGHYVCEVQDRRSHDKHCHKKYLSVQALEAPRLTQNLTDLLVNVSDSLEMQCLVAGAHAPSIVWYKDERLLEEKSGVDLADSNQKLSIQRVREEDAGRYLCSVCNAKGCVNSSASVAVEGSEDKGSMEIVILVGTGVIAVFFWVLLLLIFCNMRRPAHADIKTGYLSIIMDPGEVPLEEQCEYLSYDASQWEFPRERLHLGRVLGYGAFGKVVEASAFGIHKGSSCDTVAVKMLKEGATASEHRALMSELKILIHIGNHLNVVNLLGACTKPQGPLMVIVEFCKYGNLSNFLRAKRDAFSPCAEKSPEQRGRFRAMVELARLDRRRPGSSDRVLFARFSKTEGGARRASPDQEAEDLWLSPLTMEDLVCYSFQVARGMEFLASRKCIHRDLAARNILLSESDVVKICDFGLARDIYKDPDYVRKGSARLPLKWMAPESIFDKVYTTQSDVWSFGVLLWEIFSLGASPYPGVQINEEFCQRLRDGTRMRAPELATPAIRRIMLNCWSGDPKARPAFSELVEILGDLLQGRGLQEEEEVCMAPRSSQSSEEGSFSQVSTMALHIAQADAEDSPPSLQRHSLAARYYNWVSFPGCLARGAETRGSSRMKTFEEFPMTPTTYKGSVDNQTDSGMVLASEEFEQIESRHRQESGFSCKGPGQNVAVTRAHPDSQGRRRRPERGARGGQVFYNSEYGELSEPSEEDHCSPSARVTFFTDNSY"}, "[22]": {"target": "CSNK1G2 (human) (UniProt P78368)", "sequence (P78368 whole entry, looked up)": "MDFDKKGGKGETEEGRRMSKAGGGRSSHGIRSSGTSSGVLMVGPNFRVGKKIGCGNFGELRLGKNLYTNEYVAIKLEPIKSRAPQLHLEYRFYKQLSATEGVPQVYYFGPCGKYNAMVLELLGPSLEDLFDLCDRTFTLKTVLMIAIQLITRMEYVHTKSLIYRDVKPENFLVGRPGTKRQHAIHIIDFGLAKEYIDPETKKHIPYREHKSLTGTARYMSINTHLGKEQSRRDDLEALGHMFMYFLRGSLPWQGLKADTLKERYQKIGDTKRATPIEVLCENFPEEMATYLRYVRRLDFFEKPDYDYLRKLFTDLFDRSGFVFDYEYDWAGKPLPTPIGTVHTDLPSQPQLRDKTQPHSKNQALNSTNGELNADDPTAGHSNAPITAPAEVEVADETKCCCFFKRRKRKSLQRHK"}, "[23]": {"target": "NUAK1 (human) (UniProt O60285)"}, "[24]": {"target": "GAK (human) (UniProt O14976)"}, "[25]": {"tested_on": "FLT3 (human), P36888 [N841I]"}, "[26]": {"tested_on": "PIK3CA (human), P42336 [Q546K]"}, "[27]": {"target": "PHKG1 (human) (UniProt Q16816)"}, "[28]": {"tested_on": "LRRK2 (human), Q5S007 [G2019S]"}, "[29]": {"target": "AKT2 (human) (UniProt P31751)"}, "[30]": {"target": "CLK1 (human) (UniProt P49759)"}, "[31]": {"target": "MAPK6 (human) (UniProt Q16659)"}, "[32]": {"target": "PAK4 (human) (UniProt O96013)", "sequence (O96013 whole entry, looked up)": "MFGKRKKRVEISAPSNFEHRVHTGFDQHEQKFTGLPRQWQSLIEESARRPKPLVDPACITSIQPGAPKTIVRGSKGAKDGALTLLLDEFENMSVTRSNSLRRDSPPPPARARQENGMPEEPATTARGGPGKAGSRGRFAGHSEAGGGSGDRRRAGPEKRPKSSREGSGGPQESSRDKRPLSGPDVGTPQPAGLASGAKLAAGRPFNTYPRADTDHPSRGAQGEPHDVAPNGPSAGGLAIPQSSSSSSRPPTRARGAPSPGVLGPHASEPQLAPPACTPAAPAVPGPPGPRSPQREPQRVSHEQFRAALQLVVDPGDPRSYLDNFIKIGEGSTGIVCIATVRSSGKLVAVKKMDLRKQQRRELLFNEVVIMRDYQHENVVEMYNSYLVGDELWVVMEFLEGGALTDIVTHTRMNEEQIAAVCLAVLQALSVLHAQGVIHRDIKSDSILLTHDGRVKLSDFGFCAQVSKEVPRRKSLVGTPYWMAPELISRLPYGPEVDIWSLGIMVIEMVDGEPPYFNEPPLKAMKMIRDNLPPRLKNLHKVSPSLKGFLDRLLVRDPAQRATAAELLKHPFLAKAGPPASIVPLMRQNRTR"}, "[33]": {"tested_on": "PIK3CA (human), P42336 [I800L]"}, "[34]": {"target": "TAOK3 (human) (UniProt Q9H2K8)"}, "[35]": {"target": "RPS6KA6 KD1 (human) (UniProt Q9UK32)"}, "[36]": {"target": "JAK1 JH2 pseudokinase (human) (UniProt P23458)"}, "[37]": {"target": "MAP3K4 (human) (UniProt Q9Y6R4)"}, "[38]": {"target": "CAMK1G (human) (UniProt Q96NX5)"}, "[39]": {"target": "MAP3K12 (human) (UniProt Q12852)"}, "[40]": {"target": "EGFR (human) (UniProt P00533)"}, "[41]": {"target": "CDK7 (human) (UniProt P50613)"}, "[42]": {"target": "STK38 (human) (UniProt Q15208)"}},
  "data": [
    {"compound": "N#Cc1ccc2ncnc(NCCc3ccc4ccccc4c3)c2c1", "values": [
      {"measurement": "kinase still bound, per cent of control", "setting": "[1]", "result": 100, "unit": "%"},
      {"measurement": "kinase still bound, per cent of control", "setting": "[2]", "result": 100, "unit": "%"},
      {"measurement": "kinase still bound, per cent of control", "setting": "[3]", "result": 82, "unit": "%"},
      {"measurement": "kinase still bound, per cent of control", "setting": "[4]", "result": 100, "unit": "%"},
      {"measurement": "kinase still bound, per cent of control", "setting": "[5]", "result": 100, "unit": "%"},
      {"measurement": "kinase still bound, per cent of control", "setting": "[6]", "result": 100, "unit": "%"},
      {"measurement": "kinase still bound, per cent of control", "setting": "[7]", "result": 91, "unit": "%"},
      {"measurement": "kinase still bound, per cent of control", "setting": "[8]", "result": 100, "unit": "%"},
      {"measurement": "kinase still bound, per cent of control", "setting": "[9]", "result": 97, "unit": "%"},
      {"measurement": "kinase still bound, per cent of control", "setting": "[10]", "result": 89, "unit": "%"},
      {"measurement": "kinase still bound, per cent of control", "setting": "[11]", "result": 98, "unit": "%"},
      {"measurement": "kinase still bound, per cent of control", "setting": "[12]", "result": 96, "unit": "%"},
      {"measurement": "kinase still bound, per cent of control", "setting": "[13]", "result": 93, "unit": "%"},
      {"measurement": "kinase still bound, per cent of control", "setting": "[14]", "result": 85, "unit": "%"},
      {"measurement": "kinase still bound, per cent of control", "setting": "[15]", "result": 89, "unit": "%"},
      {"measurement": "kinase still bound, per cent of control", "setting": "[16]", "result": 99, "unit": "%"},
      {"measurement": "kinase still bound, per cent of control", "setting": "[17]", "result": 100, "unit": "%"},
      {"measurement": "kinase still bound, per cent of control", "setting": "[18]", "result": 100, "unit": "%"},
      {"measurement": "kinase still bound, per cent of control", "setting": "[19]", "result": 100, "unit": "%"},
      {"measurement": "kinase still bound, per cent of control", "setting": "[20]", "result": 100, "unit": "%"},
      {"measurement": "kinase still bound, per cent of control", "setting": "[21]", "result": 100, "unit": "%"},
      {"measurement": "kinase still bound, per cent of control", "setting": "[22]", "result": 87, "unit": "%"},
      {"measurement": "kinase still bound, per cent of control", "setting": "[23]", "result": 75, "unit": "%"},
      {"measurement": "kinase still bound, per cent of control", "setting": "[24]", "result": 100, "unit": "%"},
      {"measurement": "kinase still bound, per cent of control", "setting": "[25]", "result": 95, "unit": "%"},
      {"measurement": "kinase still bound, per cent of control", "setting": "[26]", "result": 85, "unit": "%"},
      {"measurement": "kinase still bound, per cent of control", "setting": "[27]", "result": 100, "unit": "%"},
      {"measurement": "kinase still bound, per cent of control", "setting": "[28]", "result": 100, "unit": "%"},
      {"measurement": "kinase still bound, per cent of control", "setting": "[29]", "result": 100, "unit": "%"},
      {"measurement": "kinase still bound, per cent of control", "setting": "[30]", "result": 56, "unit": "%"},
      {"measurement": "kinase still bound, per cent of control", "setting": "[31]", "result": 91, "unit": "%"},
      {"measurement": "kinase still bound, per cent of control", "setting": "[32]", "result": 91, "unit": "%"},
      {"measurement": "kinase still bound, per cent of control", "setting": "[33]", "result": 85, "unit": "%"},
      {"measurement": "kinase still bound, per cent of control", "setting": "[34]", "result": 79, "unit": "%"},
      {"measurement": "kinase still bound, per cent of control", "setting": "[35]", "result": 100, "unit": "%"},
      {"measurement": "kinase still bound, per cent of control", "setting": "[36]", "result": 100, "unit": "%"},
      {"measurement": "kinase still bound, per cent of control", "setting": "[37]", "result": 86, "unit": "%"},
      {"measurement": "kinase still bound, per cent of control", "setting": "[38]", "result": 86, "unit": "%"},
      {"measurement": "kinase still bound, per cent of control", "setting": "[39]", "result": 100, "unit": "%"},
      {"measurement": "kinase still bound, per cent of control", "setting": "[40]", "result": 75, "unit": "%"},
      {"measurement": "kinase still bound, per cent of control", "setting": "[41]", "result": 80, "unit": "%"},
      {"measurement": "kinase still bound, per cent of control", "setting": "[42]", "result": 100, "unit": "%"}
    ]}
  ]
}
